# Laboratory results taken from patent publication US11274098B2, “Tricyclic compounds for use in treatment of proliferative disorders” (ARGONAUT THERAPEUTICS LIMITED, priority 2017, dated 2022).
# Molecular target: human PRMT5/MEP50 (Homo sapiens (Human), UniProt O14744)
# Test: PRMT5 chemiluminescent assay
# Assay type: biochemical
# Conditions: human PRMT5/MEP50 expressed in HEK293 cells; biotinylated histone peptide substrate; 60 min reaction; chemiluminescent readout
# Method: A PRMT5 chemiluminescent assay was used to measure the […] activity of PRMT5. Biotinylated histone peptides were synthesized and attached to 384-well plates. Compound serial dilutions were performed and added to the assay plate. Histone H4 monomethyl R^3 antibody was obtained from Abcam. A master mix for each well was prepared and human PRMT5/MEP50 (expressed in HEK293 cells) diluted in assay buffer to a concentration of 5 ng/μL. The reaction was incubated and slowly rotated for 60 minutes at the point of PRMT5/MEP50 addition. The supernatant from the wells was removed and blocking buffer was added to each well and rotated for 10 minutes. The primary antibody was diluted and added to every well for 60 minutes, before it was removed and the wells washed. The horse radish peroxidase (HRP)-coupled secondary antibody was diluted and added to each well with an incubation time of 30 minutes. The HRP chemiluminescent substrate was added to every well. The plate was read on a Flourstar Omega BMG Labtech instrument (Ortenberg, Germany) and the analysis of IC50 was performed using the Flourstar Omega BMG Labtech software.
# human PRMT5/MEP50, sequence (O14744 whole entry): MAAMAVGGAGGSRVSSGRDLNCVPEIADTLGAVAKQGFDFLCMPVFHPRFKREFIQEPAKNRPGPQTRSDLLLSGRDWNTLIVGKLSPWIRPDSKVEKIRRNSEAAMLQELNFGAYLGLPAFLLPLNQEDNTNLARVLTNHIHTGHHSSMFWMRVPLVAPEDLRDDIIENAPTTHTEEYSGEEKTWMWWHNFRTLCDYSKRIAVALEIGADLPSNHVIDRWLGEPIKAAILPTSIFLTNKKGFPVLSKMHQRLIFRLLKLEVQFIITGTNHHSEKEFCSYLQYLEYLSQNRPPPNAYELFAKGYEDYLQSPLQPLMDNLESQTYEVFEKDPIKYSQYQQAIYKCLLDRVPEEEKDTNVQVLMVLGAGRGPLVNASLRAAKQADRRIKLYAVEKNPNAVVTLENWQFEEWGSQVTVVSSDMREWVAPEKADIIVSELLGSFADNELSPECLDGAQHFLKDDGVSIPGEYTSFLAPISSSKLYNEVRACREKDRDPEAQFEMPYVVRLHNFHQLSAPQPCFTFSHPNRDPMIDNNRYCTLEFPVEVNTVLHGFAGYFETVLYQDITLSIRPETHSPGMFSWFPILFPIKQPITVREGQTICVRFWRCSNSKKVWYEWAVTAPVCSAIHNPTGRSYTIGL
# human PRMT5/MEP50, sequence (Q9BQA1 whole entry partner): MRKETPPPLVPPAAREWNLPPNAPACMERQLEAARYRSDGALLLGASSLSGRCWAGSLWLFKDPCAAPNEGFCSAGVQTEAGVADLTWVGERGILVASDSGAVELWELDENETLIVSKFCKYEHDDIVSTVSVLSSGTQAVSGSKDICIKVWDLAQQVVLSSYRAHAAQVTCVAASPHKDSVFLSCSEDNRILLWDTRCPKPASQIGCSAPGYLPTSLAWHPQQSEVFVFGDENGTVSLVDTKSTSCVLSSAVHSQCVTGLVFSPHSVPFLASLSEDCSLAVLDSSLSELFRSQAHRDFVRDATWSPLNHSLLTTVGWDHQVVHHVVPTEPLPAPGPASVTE
row,Structure (SMILES),IC50 [nM]
1,"CC(=O)N1CCC(Nc2cc(C(=O)NC[C@H](O)CN3CCc4c([nH]c5ccccc45)C3)ncn2)CC1 [Example 26, (S)-6-((1-acetylpiperidin-4-yl)amino)-N-(2-hydroxy-3-(1,3,4,9-tetrahydro-2H-pyrido [3,4-b]indol-2-yl)propyl)pyrimidine-4-carboxamide]",10
2,"CC(=O)N1CCC(Nc2cc(C(=O)NC[C@@H](O)CN3CCc4c([nH]c5ccccc45)C3)ncn2)CC1 [Example 27, (R)-6-((1-acetylpiperidin-4-yl)amino)-N-(2-hydroxy-3-(1,3,4,9-tetrahydro-2H-pyrido [3,4-b]indol-2-yl)propyl)pyrimidine-4-carboxamide]",158
3,"O=C(NCC(O)CN1CCc2c([nH]c3ccccc23)C1)c1cc(NC2CCC2)ncn1 (stereo not drawn) [Example 11, 6-(Cyclobutylamino)-N-(2-hydroxy-3-{1H,2H,3H,4H,9H-pyrido[3,4-b]indol-2-yl}propyl)pyrimidine-4-carboxamide]",459
4,"O=C(NCC(O)CN1CCc2c([nH]c3ccccc23)C1)N1CCCC(c2ccccc2)C1 (stereo not drawn) [Example 24, N-(2-hydroxy-3-(1,3,4,9-tetrahydro-2H-pyrido[3,4-b]indol-2-yl)propyl)-3-phenylpiperidine-1-carboxamide]",53700
5,"CC(=O)N1CCC(Nc2cc(C(=O)NCC(O)CN3CCn4c(cc5ccccc54)C3)ncn2)CC1 (stereo not drawn) [Example 28, 6-((1-acetylpiperidin-4-yl)amino)-N-(3-(3,4-dihydropyrazino[1,2-a]indol-2(1H)-yl)-2-hydroxypropyl)pyrimidine-4-carboxamide]",45
6,"CN1CCN(c2nc(NC3CCC3)cc(C(=O)NCC(O)CN3CCc4c(c5ccccc5n4C)C3)n2)CC1 (stereo not drawn) [Example 6, 6-(cyclobutylamino)-N-(2-hydroxy-3-{5-methyl-1H,2H,3H,4H,5H-pyrido[4,3-b]indol-2-yl}propyl)-2-(4-methylpiperazin-1-yl)pyrimidine-4-carboxamide]",108
7,"O=C(NCC(O)CN1CCc2c([nH]c3ccccc23)C1)c1ccc(C(=O)N2CCOCC2)cc1 (stereo not drawn) [Example 13, N-(2-hydroxy-3-{1H,2H,3H,4H,9H-pyrido[3,4-b]indol-2-yl}propyl)-4-[(morpholin-4-yl)carbonyl]benzamide]",2040
8,"Cn1c2c(c3ccccc31)CCN(CC(O)CNC(=O)c1cc(NC3CCC3)ncn1)C2 (stereo not drawn) [Example 17, 6-(cyclobutylamino)-N-(2-hydroxy-3-{9-methyl-1H,2H,3H,4H,9H-pyrido[3,4-b]indol-2-yl}propyl)pyrimidine-4-carboxamide]",8040
9,"CC(=O)N1CCC(Nc2cc(C(=O)NCCCN3CCc4c([nH]c5ccccc45)C3)ncn2)CC1 [Example 25, 6-((1-acetylpiperidin-4-yl)amino)-N-(3-(1,3,4,9-tetrahydro-2H-pyrido[3,4-b]indol-2-yl)propyl)pyrimidine-4-carboxamide]",99
10,"O=C(NCC(O)CN1CCc2c([nH]c3ccccc23)C1)N1CCC(c2ccccc2)C1 (stereo not drawn) [Example 23, N-(2-hydroxy-3-(1,3,4,9-tetrahydro-2H-pyrido[3,4-b]indol-2-yl)propyl)-3-phenyl pyrrolidine-1-carboxamide]",75700
11,"CN1CCN(c2nc(NC3CCC3)cc(C(=O)NCC(O)CN3CCc4c([nH]c5ccccc45)C3)n2)CC1 (stereo not drawn) [Example 9, 6-(cyclobutylamino)-N-(2-hydroxy-3-{1H,2H,3H,4H,9H-pyrido[3,4-b]indol-2-yl}propyl)-2-(4-methylpiperazin-1-yl)pyrimidine-4-carboxamide]",148
12,"CN1CCN(c2nc(NC3CCC3)cc(C(=O)NCC(O)CN3CCc4c(n(C)c5ccccc45)C3)n2)CC1 (stereo not drawn) [Example 15, 6-(cyclobutylamino)-N-(2-hydroxy-3-{9-methyl-1H,2H,3H,4H,9H-pyrido[3,4-b]indol-2-yl}propyl)-2-(4-methylpiperazin-1-yl)pyrimidine-4-carboxamide]",477
13,"CC(=O)N1CCC(Nc2cc(C(=O)NCC(O)CN3CCc4c([nH]c5ccccc45)C3)ncn2)CC1 (stereo not drawn) [Example 12, 6-[(1-acetylpiperidin-4-yl)amino]-N-(2-hydroxy-3-{1H,2H,3H,4H,9H-pyrido[3,4-b]indol-2-yl}propyl)pyrimidine-4-carboxamide]",86
14,"O=C(OCC(O)CN1CCc2c([nH]c3ccccc23)C1)N1CCC(c2ccccc2)C1 (stereo not drawn) [Example 20, 2-hydroxy-3-(1,3,4,9-tetrahydro-2H-pyrido[3,4-b]indol-2-yl)propyl 3-phenylpyrrolidine-1-carboxylate]",10500
15,"Cn1c2c(c3ccccc31)CCN(CC(O)CNC(=O)c1ccc(C(=O)N3C4CCC3COC4)cc1)C2 (stereo not drawn) [Example 19, N-(2-hydroxy-3-{9-methyl-1H,2H,3H,4H,9H-pyrido[3,4-b]indol-2-yl}propyl)-4-({3-oxa-8-azabicyclo[3.2.1]octan-8-yl}carbonyl)benzamide]",26900
16,"O=C(OCC(O)CN1CCc2c([nH]c3ccccc23)C1)N1CCc2ccccc2C1 (stereo not drawn) [Example 21, 2-Hydroxy-3-(1,3,4,9-tetrahydro-2H-pyrido[3,4-b]indol-2-yl)propyl 3,4-dihydroisoquinoline-2(1H)-carboxylate]",6190
17,"CC(=O)N1CCC(Nc2cc(C(=O)NCC(O)CN3CCc4c(n(C)c5ccccc45)C3)ncn2)CC1 (stereo not drawn) [Example 18, 6-[(1-acetylpiperidin-4-yl)amino]-N-(2-hydroxy-3-{9-methyl-1H,2H,3H,4H,9H-pyrido[3,4-b]indol-2-yl}propyl)pyrimidine-4-carboxamide]",2050
18,"O=C(NCC(O)CN1CCc2c([nH]c3ccccc23)C1)N1CCc2ccccc2C1 (stereo not drawn) [Example 22, N-(2-hydroxy-3-(1,3,4,9-tetrahydro-2H-pyrido[3,4-b]indol-2-yl)propyl)-3,4-dihydroisoquinoline-2(1H)-carboxamide]",21000
19,"CN1CCN(c2cc(C(=O)NCC(O)CN3CCc4c(c5ccccc5n4C)C3)cc(NC3CCC3)n2)CC1 (stereo not drawn) [Example 7, 2-(cyclobutylamino)-N-(2-hydroxy-3-{5-methyl-1H,2H,3H,4H,5H-pyrido[4,3-b]indol-2-yl}propyl)-6-(4-methylpiperazin-1-yl)pyridine-4-carboxamide]",322
20,"CN1CCN(c2cc(C(=O)NCC(O)CN3CCc4[nH]c5ccccc5c4C3)cc(NC3CCC3)n2)CC1 (stereo not drawn) [Example 2, 2-(cyclobutylamino)-N-(2-hydroxy-3-{1H,2H,3H,4H,5H-pyrido[4,3-b]indol-2-yl}propyl)-6-(4-methylpiperazin-1-yl)pyridine-4-carboxamide]",771
21,"CN1CCN(c2cc(C(=O)NCC(O)CN3CCc4c(n(C)c5ccccc45)C3)cc(NC3CCC3)n2)CC1 (stereo not drawn) [Example 16, 2-(cyclobutylamino)-N-(2-hydroxy-3-{9-methyl-1H,2H,3H,4H,9H-pyrido[3,4-b]indol-2-yl}propyl)-6-(4-methylpiperazin-1-yl)pyridine-4-carboxamide]",286
22,"CC(=O)N1CCC(Nc2cc(C(=O)NCC(O)CN3CCc4[nH]c5ccccc5c4C3)ncn2)CC1 (stereo not drawn) [Example 4, 6-[(1-acetylpiperidin-4-yl)amino]-N-(2-hydroxy-3-{1H,2H,3H,4H,5H-pyrido[4,3-b]indol-2-yl}propyl)pyrimidine-4-carboxamide]",542
23,"CN1CCN(c2cc(C(=O)NCC(O)CN3CCc4c([nH]c5ccccc45)C3)cc(NC3CCC3)n2)CC1 (stereo not drawn) [Example 10, 2-(cyclobutylamino)-N-(2-hydroxy-3-{1H,2H,3H,4H,9H-pyrido[3,4-b]indol-2-yl}propyl)-6-(4-methylpiperazin-1-yl)pyridine-4-carboxamide]",67
24,"O=C(NCC(O)CN1CCc2c([nH]c3ccccc23)C1)c1ccc(C(=O)N2C3CCC2COC3)cc1 (stereo not drawn) [Example 14, N-(2-hydroxy-3-{1H,2H,3H,4H,9H-pyrido[3,4-b]indol-2-yl}propyl)-4-({3-oxa-8-azabicyclo[3.2.1]octan-8-yl}carbonyl)benzamide]",1630
